The source of these data is ChEMBL document CHEMBL1275495, “Clinical isolates of Aspergillus species remain fully susceptible to voriconazole in the post-voriconazole era” (2008).

SMILES strings stand for the structures. In brackets after ≈: the same amount, converted by molar mass.

Assay type in all cases: functional
Experiment [1] has as its system Aspergillus flavus. The experiment can be described thus: Antifungal activity against Aspergillus flavus clinical isolate obtained from invasive aspergillosis patient after 48 hrs by CLSI method.
For experiment [2], the system named is Aspergillus sp. The experiment can be described thus: Antifungal activity against Aspergillus sp. selected after drug exposure after 48 hrs by CLSI method.
Experiment [3] relates to Aspergillus sp. The experiment can be described thus: Antifungal activity against Aspergillus sp. clinical isolate obtained from invasive aspergillosis patient selected after drug exposure after 48 hrs by CLSI method.
Experiment [4] has as its system Aspergillus. The experiment can be described thus: Antifungal activity against Aspergillus species after 48 hrs by CLSI method.
Experiment [5] has as its system Aspergillus sp. Description: Antifungal activity against Aspergillus sp. clinical isolate obtained from invasive aspergillosis patient after 48 hrs by CLSI method.
The test system of experiment [6] is Aspergillus niger. The experiment can be described thus: Antifungal activity against Aspergillus niger clinical isolate obtained from invasive aspergillosis patient after 48 hrs by CLSI method.
Experiment [7] concerns Aspergillus terreus. The experiment can be described thus: Antifungal activity against Aspergillus terreus clinical isolate obtained from invasive aspergillosis patient after 48 hrs by CLSI method.
For experiment [8], the system named is Aspergillus fumigatus. Description: Antifungal activity against Aspergillus fumigatus clinical isolate obtained from invasive aspergillosis patient after 48 hrs by CLSI method.

The MIC is the lowest concentration found to suppress growth. The low end stands for inhibition by little substance, the high end for a need for much substance. For orientation: MIC50 means the lowest concentration that inhibits either 50% of growth or 50% of the strains tested, depending on the study. What is called MIC90 is the lowest concentration that inhibits either 90% of growth or 90% of the strains tested, depending on the study. High values mean weaker potency, low ones greater potency. With `C[C@@H](c1ncncc1F)[C@](O)(Cn1cncn1)c1ccc(F)cc1F` [VORICONAZOLE], the Activity in experiment [1] stood at 0.76 µg/mL; in experiment [6] it was 0.76 µg/mL; in experiment [7], 0.76 µg/mL; in experiment [8], 0.46 µg/mL. For the same compound, the MIC in experiment [2] is 0.4 µg/mL (≈ 1.15 µM); in experiment [3], 0.61 µg/mL (≈ 1.75 µM); in experiment [4], 0.39 µg/mL (≈ 1.12 µM); in experiment [5], 0.57 µg/mL (≈ 1.63 µM). Besides, the MIC50 came out at 0.25 µg/mL (≈ 0.716 µM) in experiment [2], 0.5 µg/mL (≈ 1.43 µM) in experiment [3], 0.25 µg/mL (≈ 0.716 µM) in experiment [4] and 0.5 µg/mL (≈ 1.43 µM) in experiment [5]. Moreover, the MIC90 is 0.5 µg/mL (≈ 1.43 µM) in experiment [2], 1 µg/mL (≈ 2.86 µM) in experiment [3], 0.5 µg/mL (≈ 1.43 µM) in experiment [4] and 1 µg/mL (≈ 2.86 µM) in experiment [5].
